This note sets out measurements from US20100010035A1, “Novel Dual Action Receptors Antagonists (Dara) at the Ati and Eta Receptors” (priority 2006, published 2010).

The term IC50 denotes the concentration that gives 50% inhibition.

Test [1] has as its target T1, human ETA receptor (Homo sapiens, UniProt P25101).
T1 construct: CHO cell stably over-expressing the full length human ETA receptor; expressed in transfected cells
T1 sequence (P25101 21-427): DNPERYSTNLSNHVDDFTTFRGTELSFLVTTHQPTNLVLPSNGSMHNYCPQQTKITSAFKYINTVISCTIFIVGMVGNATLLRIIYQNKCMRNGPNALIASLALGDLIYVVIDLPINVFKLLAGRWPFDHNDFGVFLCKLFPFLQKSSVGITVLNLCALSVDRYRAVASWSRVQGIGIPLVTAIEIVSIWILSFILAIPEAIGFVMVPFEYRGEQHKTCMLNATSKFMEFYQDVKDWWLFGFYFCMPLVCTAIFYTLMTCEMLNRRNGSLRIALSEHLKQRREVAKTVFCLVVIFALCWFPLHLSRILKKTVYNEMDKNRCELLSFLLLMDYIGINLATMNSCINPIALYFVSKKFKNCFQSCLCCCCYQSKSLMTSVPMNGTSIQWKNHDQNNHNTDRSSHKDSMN
As to the kind of experiment: ETA functional assay (FLIPR Ca efflux, Endothelin-1 at EC80). It counts as cell-based. The settings on record: CHO cells over-expressing full length human ETA receptor; Endothelin-1 as agonist at EC80. As to the method:
(§1) CHO cell stably over-expressing the full length human ETA receptor was cultured in DMEM (Gibco) with 10% FCS (Hyclone) and selection maintained using 0.5 mg/ml G418 (Gibco). Cell at 70% confluence were trypsnised, resuspended in media and counted. 20,000 cells/well were plated into black polystyrene 384-well plates with transparent bottoms and allowed 16 hours to adhere. The cells were loaded with Flou-4 (TEFLABS, USA) dye in BSS (Gibco) for 1 hour and then washed in HBSS and 0.6 μl of diluted compounds in DMSO added to the cells in 30 μl of HBSS in Multimek liquid handling system (Beckman, USA). The cells were then placed in the Fluorometric Imaging Plate Readers (FLIPR, Molecular Devices, USA) and 20 μl of Endothelin-1 peptide as agonist in HBSS (at EC80) was added in the instrument.
(§2) The Ca efflux was followed for 2 mins and the maximum height of the peak was measured at various compound concentrations and plotted according to the equation
(§3) and IC50 estimated wherein A is the bottom plateau of the curve i.e. the final minimum y value B is the top of the plateau of the curve i.e. the final maximum y value C is the x value at the middle of the curve. This represents the log EC50 value when A+B=100 D is the slope factor. x is the original known x values. y is the original known y values.

The target of test [2] is T2, human AT1 receptor (Homo sapiens, UniProt P30556).
T2 construct: CHO cell stably over-expressing the full length human AT1 receptor; expressed in transfected cells
T2 sequence (P30556 1-359): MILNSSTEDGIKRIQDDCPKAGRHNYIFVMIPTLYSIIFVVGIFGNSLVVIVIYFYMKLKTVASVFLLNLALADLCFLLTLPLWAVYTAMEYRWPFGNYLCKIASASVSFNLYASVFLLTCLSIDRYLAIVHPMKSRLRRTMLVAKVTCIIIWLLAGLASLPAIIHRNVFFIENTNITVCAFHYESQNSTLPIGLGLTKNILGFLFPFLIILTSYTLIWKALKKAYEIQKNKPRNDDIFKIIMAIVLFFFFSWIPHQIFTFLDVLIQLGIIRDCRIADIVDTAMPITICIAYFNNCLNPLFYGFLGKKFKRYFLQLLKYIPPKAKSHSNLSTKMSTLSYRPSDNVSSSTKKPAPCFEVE
Kind of test: AT1 functional assay (FLIPR Ca efflux, Angiotensin-II at EC80). It counts as cell-based. The settings on record: CHO cells over-expressing full length human AT1 receptor; Angiotensin-II as agonist at EC80. As for the experimental part:
as §1, with “human AT1” for “human ETA”, “in HBSS” for “in BSS”, “30 μd” for “30 μl”, “of Angiotensin-II” for “of Endothelin-1”, “agonist (at EC80)” for “agonist”, “HBSS” for “HBSS (at EC80)”
as §2, §3

Take `CCc1cc2c(c(C)n1)c(-c1ccc(OC)cc1)nn2Cc1ccc(-c2cc(C)sc2S(=O)(=O)Nc2noc(C)c2C)c(C)c1` [Example 24, 3-{4-[6-Ethyl-3-(4-methoxy-phenyl)-4-methyl-pyrazolo[4,3-c]pyridin-1-ylmethyl]-2-methyl-phenyl}-5-methyl-thiophene-2-sulfonic acid (4,5-dimethyl-isoxazol-3-yl)-amide]: the IC50 in test [1] is 1890 nM; in test [2], 27.4 nM.
With `CCc1cc2c(c(Oc3ccccc3)cc(=O)n2Cc2ccc(-c3ccsc3S(=O)(=O)Nc3noc(C)c3C)cc2)c(CC)n1` [Example 8, 3-[4-(5,7-diethyl-2-oxo-4-phenoxy-2H-[1,6]naphthyridin-1-ylmethyl)-phenyl]-thiophene-2-sulphonic acid(4,5-dimethyl-isoxazol-3-yl)-amide], the IC50 in test [1] was 2870 nM; in test [2], 20.8 nM.
On to `Cc1cc2c(cc(-c3ccccc3)c(=O)n2Cc2ccc(-c3cc(C)sc3S(=O)(=O)Nc3noc(C)c3C)c(C)c2)c(C)n1` [Example 29, 3-[4-(5,7-dimethyl-2-oxo-3-phenyl-2H-[1,6]naphthyridin-1-ylmethyl)-2-methyl-phenyl]-5-methyl-thiophene-2-sulfonic acid (4,5-dimethyl-isoxazol-3-yl)-amide], for which the 50% inhibitory concentration (IC50) in test [1] stood at 292 nM; in test [2] it was 15.9 nM.
As for `COCc1cc(Cn2nc(-c3cccs3)c3c(C)nc(C)cc32)ccc1-c1cc(C)sc1S(=O)(=O)Nc1noc(C)c1C` [Example 21, 3-[4-(4,6-dimethyl-3-thiophen-2-yl-pyrazolo[4,3-c]pyridin-1-ylmethyl)-2-methoxymethyl-phenyl]-5-methyl-thiophene-2-sulfonic acid (4,5-dimethyl-isoxazol-3-yl)-amide], the IC50 in test [1] came to 464 nM; in test [2] it was 7.47 nM.
As to `Cc1cc2c(ccc(=O)n2Cc2ccc(-c3cc(C)sc3S(=O)(=O)Nc3noc(C)c3C)c(OCC(C)C)c2)c(C)n1` [Example 36, 3-[4-(5,7-Dimethyl-2-oxo-2H-[1,6]naphthyridin-1-ylmethyl)-2-isobutoxy-phenyl]-5-methyl-thiophene-2-sulfonic acid (4,5-dimethyl-isoxazol-3-yl)-amide], the values for the IC50 in test [1] and in test [2] were 758 nM and 58.3 nM, respectively.
With `CCOc1nc2cccc(C(=O)O)c2n1Cc1ccc(-c2cc(C)sc2S(=O)(=O)Nc2onc(C)c2C)cc1` [Example 26, 3-{4-[2-(3,4-dimethyl-isoxazol-5-ylsulfamoyl)-5-methyl-thiophen-3-yl]-benzyl}-2-ethoxy-3H-benzoimidazole-4-carboxylic acid], the results for the IC50 in test [1] and in test [2] were 18900 nM and 117 nM, respectively.
On to `CCc1cc2c(ccc(=O)n2Cc2ccc(-c3cc(C)sc3S(=O)(=O)Nc3noc(C)c3C)c(F)c2)c(CC)n1` [Example 35, 3-[4-(5,7-Diethyl-2-oxo-2H-[1,6]naphthyridin-1-ylmethyl)-2-fluoro-phenyl]-5-methyl-thiophene-2-sulfonic acid (4,5-dimethyl-isoxazol-3-yl)-amide], for which the IC50 amounted to 2570 nM in test [1] and 27.6 nM in test [2].
For `CCc1cc2c(ccc(=O)n2Cc2ccc(-c3cc(C)sc3S(=O)(=O)Nc3noc(C)c3C)cc2)c(CC)n1` [Example 7, 3-[4-(5,7-diethyl-2-oxo-2H-[1,6]naphthyridin-1-yl-methyl)-phenyl]-5-methyl-thiophene-2-sulphonic acid-(4,5 dimethyl-isoxazol-3-yl)-amide], the IC50 in test [1] was found to be 814 nM; in test [2] it was 24.6 nM.
`Cc1cc2c(c(C)n1)c(-c1ccccc1)nn2Cc1ccc(-c2cc(C)sc2S(=O)(=O)Nc2noc(C)c2C)c(C)c1` [Example 18]: the IC50 in test [1] turned out to be 1430 nM; in test [2], 7.98 nM.
Take `CCc1cc(OCc2ccc(-c3ccsc3S(=O)(=O)Nc3noc(C)c3C)cc2)c(C(=O)c2ccccc2)c(C)n1` [Example 4, 3-[4-(3-Benzoyl-6-ethyl-2-methyl-pyridin-4-yloxymethyl)-phenyl]-thiophene-2-sulphonic acid (4,5-dimethyl-isoxazol-3-yl)-amide]: the values for the IC50 in test [1] and in test [2] were 6200 nM and 29 nM, respectively.
Take `CCc1cc2c(ccc(=O)n2Cc2ccc(-c3cc(C)sc3S(=O)(=O)Nc3onc(C)c3C)c(C)c2)c(CC)n1` [Example 30, 3-[4-(5,7-diethyl-2-oxo-2H-[1,6]naphthyridin-1-ylmethyl)-2-methyl-phenyl]-5-methyl-thiophene-2-sulfonic acid (3,4-dimethyl-isoxazol-5-yl)-amide]: the IC50 in test [1] was 3320 nM; in test [2], 18.9 nM.
For `Cc1cc2c(c(C)n1)c(-c1ccc(Cl)cc1)nn2Cc1ccc(-c2cc(C)sc2S(=O)(=O)Nc2noc(C)c2C)c(C)c1` [Example 37, 3-{4-[3-(4-Chloro-phenyl)-4,6-dimethyl-pyrazolo[4,3-c]pyridin-1-ylmethyl]-2-methyl-phenyl}-5-methyl-thiophene-2-sulfonic acid (4,5-dimethyl-isoxazol-3-yl)-amide] the same measures were 407 nM and 153 nM.
On to `CCOCc1cc(Cn2nc(-c3cccs3)c3c(C)nc(CC)cc32)ccc1-c1cc(C)sc1S(=O)(=O)Nc1onc(C)c1C` [Example 27, 3-[2-Ethoxymethyl-4-(6-ethyl-4-methyl-3-thiophen-2-yl-pyrazolo[4,3-c]pyridin-1-ylmethyl)-phenyl]-5-methyl-thiophene-2-sulfonic acid (3,4-dimethyl-isoxazol-5-yl)-amide], for which the values for the IC50 in test [1] and in test [2] were 646 nM and 15.6 nM, respectively.
As to `CCc1cc2c(c(Sc3ccccc3)cc(=O)n2Cc2ccc(-c3ccsc3S(=O)(=O)Nc3noc(C)c3C)cc2)c(CC)n1` [Example 3, 3-[4-(5,7-diethyl-2-oxo-4-phenylsulphanyl-2H-[1,6]naphthyridin-1 ylmethyl)-phenyl]-thiophene-2-sulphonic acid(4,5-dimethyl-isoxazol-3-yl)-amide], the IC50 in test [1] is 2920 nM; in test [2], 125 nM.
For `CCOCc1cc(Cn2nc(-c3cccs3)c3c(C)nc(CC)cc32)ccc1-c1cc(C)sc1S(=O)(=O)Nc1noc(C)c1C` [Example 22, 3-[2-Ethoxymethyl-4-(6-ethyl-4-methyl-3-thiophen-2-yl-pyrazolo[4,3-c]pyridin-1-ylmethyl)-phenyl]-5-methyl-thiophene-2-sulfonic acid (4,5-dimethyl-isoxazol-3-yl)-amide] the same measures were 454 nM and 25.2 nM.
With `CCOCc1cc(Cn2nc(Cn3nc(C)cc3C)c3c(C)nc(C)cc32)ccc1-c1cc(C)sc1S(=O)(=O)Nc1noc(C)c1C` [Example 15, 3-{4-[3-(3,5-Dimethyl-pyrazol-1-ylmethyl)-4,6-dimethyl-pyrazolo[4,3-c]pyridin-1-ylmethyl]2-ethoxymethyl-phenyl}-5-methyl-thiophene-2-sulphonic acid (4,5-dimethyl-isoxazol-3-yl)-amide], the half-inhibitory concentration (IC50) in test [1] was 503 nM; in test [2], 11.4 nM.
For `CCc1cc2c(c(C)n1)c(-c1ccccc1)nn2Cc1ccc(-c2ccsc2S(=O)(=O)Nc2ncc(C)nc2OC)cc1` [Example 34] the same measures were 7040 nM and 189 nM.
